Experimental data as given in PubChem BioAssay (NCI).
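A five-concentration, 48-hour dose response in 96-well plates underlies each endpoint, interpolated linearly between surrounding concentrations. At the GI50, growth is halved. The concentration for full growth arrest is given as TGI.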

Columns and labels:
Assay in all cases: DTP human tumour cell line panel, 48 h
[1] = system: HOP-62 NSCLC
[2] = system: SN12C renal
[3] = system: CCRF-CEM leukemia
[4] = system: UACC-257 melanoma
[5] = system: MALME-3M melanoma
[6] = system: RPMI-8226 leukemia
[7] = system: SNB-19 CNS
[8] = system: NCI/ADR-RES ovarian
[9] = system: HS 578T breast
[10] = system: DU-145 prostate

| SMILES | TGI [1] [µM] | TGI [2] [µM] | TGI [3] [µM] | TGI [4] [µM] | TGI [5] [µM] | TGI [6] [µM] | TGI [7] [µM] | GI50 [1] [µM] | GI50 [8] [µM] | TGI [8] [µM] | GI50 [2] [µM] | GI50 [3] [µM] | GI50 [9] [µM] | TGI [9] [µM] | GI50 [10] [µM] | TGI [10] [µM] | GI50 [5] [µM] | GI50 [6] [µM] | GI50 [7] [µM] | GI50 [4] [µM] |
| --- | --- | --- | --- | --- | --- | --- | --- | --- | --- | --- | --- | --- | --- | --- | --- | --- | --- | --- | --- | --- |
| CSC(=Nc1ccc([N+](=O)[O-])cc1C#N)NC(=O)c1ccccc1 | > 100 | > 100 | > 100 | > 100 | > 100 | > 100 | > 100 |  |  |  |  |  |  |  |  |  |  |  |  |  |
| O=S1(=O)[C@H](c2ccccc2)c2c(-c3ccccc3)sc(-c3ccccc3)c2[C@@H]1c1ccccc1 | > 100 | > 100 | > 100 | > 100 | > 100 | > 100 | > 100 |  |  |  |  |  |  |  |  |  |  |  |  |  |
| Nc1nc(N)c2cc(S(=O)(=O)c3cccc(C(F)(F)F)c3)ccc2n1 | 34.2 | > 100 | > 100 |  | > 100 | > 100 | > 100 | 6.43 | 7.79 | > 100 | 6.34 | 3.41 | 4.55 | 49.7 | 6.35 | > 100 | 5.74 | 5.21 | 5.44 |  |
| COc1ccc2c(c1)c(-c1ccc(-c3cn(C)c4ccc(OC)cc34)s1)cn2C | > 100 | > 100 |  | > 100 | > 100 | > 100 | > 100 | > 100 | > 100 | > 100 | > 100 |  | > 100 | > 100 | > 100 | > 100 | > 100 | > 100 | > 100 | > 100 |
| CCC(=O)N1C(=S)SC[C@H]1C(=O)OC | > 100 | > 100 | > 100 | > 100 | > 100 |  | > 100 |  |  |  |  |  |  |  |  |  |  |  |  |  |
| CN(c1ccccc1)c1nc(=[N+](C)C)ss1 | > 100 | > 100 | > 100 | > 100 | > 100 |  | > 100 |  |  |  |  |  |  |  |  |  |  |  |  |  |
| C/C(=C1\C(=O)Nc2ccccc21)c1cccc(/C(C)=C2/C(=O)Nc3ccccc32)n1 | 74.1 | 54.7 | > 100 | 86 |  | > 100 | > 100 | 15.5 | 4.93 | 44.8 | 15.6 | 6.55 | 4.1 | > 100 | 2.93 | > 100 |  | 4.87 | 23.1 | 9.43 |
| CS(=O)(=O)N(CCC#N)c1ccc(/C=C2\N=C(c3ccccc3Cl)OC2=O)cc1 | > 100 | > 100 | > 100 | > 100 | > 100 | > 100 | > 100 |  |  |  |  |  |  |  |  |  |  |  |  |  |
| [N-]=[N+]=NC1C(Cl)C(=O)NC(=O)N1[C@H]1C[C@H](O)[C@@H](CO)O1 (stereo partly drawn) | > 100 | > 100 | > 100 | > 100 | > 100 | > 100 | > 100 |  |  |  |  | 26.3 |  |  |  |  |  | 71.9 |  |  |
| O=C(O)C1CCCN1 (stereo not drawn) | > 100 | > 100 |  | > 100 | > 100 | > 100 | > 100 |  |  | > 100 |  |  |  | > 100 |  | > 100 |  |  |  |  |
| O=c1[nH]c(=O)n(Cc2ccc(C34CC5CC(CC(C5)C3)C4)c(O)c2)cc1F | 31.4 | 26.8 |  |  | 30.9 | 23.8 | 34 | 14.6 | 13 | 31.4 | 13.5 |  | 15 | 41.7 | 16.7 | 32.4 | 14.6 | 5.74 | 15.6 |  |
| CCOc1ccc2c(c1)[n+]([O-])c(C(N)=O)c(N)[n+]2[O-] | > 100 | > 100 | > 100 | > 100 | > 100 |  | > 100 |  |  |  |  |  |  |  |  |  |  |  |  |  |
| O=C(c1ccccc1)[C@H]1Nc2ccc(Cl)cc2[C@H]2c3ccccc3O[C@H]21 | 32.5 | 29.1 |  | 8.48 | 31.7 | > 100 | 29.3 |  |  |  |  |  |  |  |  |  |  |  |  |  |
| Clc1ccc2c(NC3CCC(NC4CCCCC4)CC3)ccnc2c1 (stereo not drawn) |  | 68.3 |  | 4.17 | 5.1 | 14.5 | 89.8 |  | 8.48 | 30.4 | 14.7 |  |  |  | 13.3 | 33.6 | 2.43 | 2.26 | 21.3 | 2.18 |
| CCCCCCCCCCCC(c1ccccc1)[N+](C)(C)C (stereo not drawn) | 3.07 | 3.77 | 4.12 | 2.98 | 2.91 | 1.92 |  | 1.52 | > 100 | > 100 | 1.59 | 1.41 | 1.16 | 3.28 | 1.56 | 7.51 | 1.29 | 0.462 |  | 1.37 |
| [O-]c1ccccc1C=NCCN=Cc1ccccc1[O-].[O]=[U+2]=[O] | > 67 | > 63.4 | > 100 | > 78.1 | > 63.5 | > 31.6 | > 67.3 | > 43.3 |  |  | 28.4 | 35.3 |  |  |  |  | 39.7 | 22.4 | 23.3 | 34.5 |
| Cc1ccc(/C=C/C(=O)c2ccc(F)cc2)s1 | 28 | 19.8 |  | 14.1 | 3.74 |  | 24.4 | 14.2 | 3.68 | 17.6 | 6.47 |  | 3.35 | 9.7 | 3.41 | 11.2 | 1.74 |  | 11.3 | 3.33 |
| O=C1C2C3SC(c4cc5ccccc5cc43)C2C(=O)N1c1ccccc1 (stereo not drawn) |  | > 100 | > 100 | > 100 | > 100 | > 100 | > 100 |  |  |  |  |  |  |  |  |  |  |  |  |  |
| O=C1CN=C(c2ccccc2)c2ccncc2N1 | > 100 | > 100 | > 100 | 72.5 | > 100 |  | > 100 |  |  |  |  |  |  |  |  |  |  |  |  |  |
| CCOP(=O)(OCC)C(C(=O)OC)C(=O)C(=O)Nc1cccc([N+](=O)[O-])c1 (stereo not drawn) | > 100 | > 100 | > 100 | > 100 | > 100 |  | > 100 |  |  |  |  |  |  |  |  |  |  |  |  |  |
